Values joined by “and” are separate entries in the source; they are usually repeats but may differ in a detail not shown here. Equal entries are not always repeated.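 Following 48 hours of exposure in 96-well plates, responses at five concentrations were used to interpolate endpoints linearly. GI50 is the concentration that inhibits growth by half. TGI: concentration producing complete growth inhibition.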 Where only a bound is given, the exact number is not on record here.

Nine molecules from PubChem BioAssay (NCI) can be followed below.

Some test systems named below: SK-MEL-2 melanoma; SF-539 CNS; MOLT-4 leukemia; SNB-75 CNS; SR leukemia; RXF 393 renal; NCI-H226 lung; BT-549 breast; MALME-3M melanoma; 786-0 renal.
Assay in all cases: DTP human tumour cell line panel, 48 h

For `Cc1cc(O)c(C2=NN(c3ccc(S(N)(=O)=O)cc3)C(c3ccccc3O)C2)cc1Cl` (stereo unspecified), the GI50 in the experiment on SK-MEL-2 melanoma is 4.85 µM; with SF-539 CNS, 1.61 µM; in the experiment on MOLT-4 leukemia, 3.11 µM; in the experiment on SNB-75 CNS it was 1.54 µM; in the experiment on SR leukemia, 2.22 µM; with RXF 393 renal it was 2.05 µM. Further, the GI50 with NCI-H226 lung is 1.83 µM; in the experiment on BT-549 breast, 2.08 µM; in the experiment with MALME-3M melanoma it was 2.2 µM; in the experiment with 786-0 renal, 2.04 µM. In addition, the TGI is 11.6 µM with SK-MEL-2 melanoma; 3.04 µM in the experiment on SF-539 CNS; 12.2 µM in the experiment on MOLT-4 leukemia; 8.64 µM in the experiment on SNB-75 CNS; 26.7 µM in the experiment on SR leukemia; 5.78 µM in the experiment on RXF 393 renal. The TGI in the experiment on NCI-H226 lung stood at 6.05 µM; in the experiment on BT-549 breast, 6.11 µM; with MALME-3M melanoma, 6.7 µM; with 786-0 renal, 3.88 µM.

For `CCN1CCC2(CC1)NC(=O)c1c(c3ccc(Cl)c(Cl)c3n1C)C2C#N` (stereo unspecified), the GI50 in the experiment with SK-MEL-2 melanoma is 2.02 µM; in the experiment on SF-539 CNS, 1.89 µM; with MOLT-4 leukemia it was 2.43 µM; in the experiment on SNB-75 CNS, 1.75 µM; in the experiment with SR leukemia, 1.76 µM; with RXF 393 renal, 1.24 µM. Besides, the GI50 in the experiment on NCI-H226 lung is 5.67 µM; in the experiment on BT-549 breast, 3.61 µM; with MALME-3M melanoma, 1.76 µM; in the experiment with 786-0 renal, 1.7 µM. In addition, the TGI in the experiment on SK-MEL-2 melanoma turned out to be 4.42 µM; with SF-539 CNS, 4.52 µM; in the experiment on MOLT-4 leukemia, 8.66 µM; in the experiment with SNB-75 CNS, 4.64 µM; with SR leukemia it was 5.69 µM; in the experiment on RXF 393 renal, 4.13 µM. Moreover, the TGI in the experiment with NCI-H226 lung was 23.7 µM; in the experiment with BT-549 breast, 15.2 µM; in the experiment with MALME-3M melanoma, 3.37 µM; in the experiment on 786-0 renal, 3.13 µM.

Regarding `COc1ccc2c(c1)CC[C@@H]1[C@@H]2CC[C@]2(C)c3[nH]ncc3C[C@@H]12`, the GI50 was 17 µM with SK-MEL-2 melanoma; 14.8 µM in the experiment with SF-539 CNS; 1.8 µM with MOLT-4 leukemia; 21.9 µM in the experiment with SNB-75 CNS; 2.14 µM in the experiment on SR leukemia; 11.3 µM in the experiment on RXF 393 renal. For the same molecule, the GI50 with NCI-H226 lung was 16.6 µM; in the experiment with BT-549 breast, 26 µM; with MALME-3M melanoma, 11.7 µM; in the experiment on 786-0 renal, 18.2 µM. For the same molecule, the TGI in the experiment with SK-MEL-2 melanoma is above 50 µM; in the experiment with SF-539 CNS it was 42 µM; in the experiment on MOLT-4 leukemia, 40.6 µM; in the experiment with SNB-75 CNS, above 50 µM; in the experiment with SR leukemia it was 15.3 µM; in the experiment with RXF 393 renal, 28 µM. The TGI in the experiment on NCI-H226 lung was above 50 µM; in the experiment with BT-549 breast, above 50 µM; in the experiment with MALME-3M melanoma it was 27 µM; in the experiment on 786-0 renal, above 50 µM.

Take `CNS(=O)(=O)c1ccccc1C(=N)c1ccccc1`: the TGI in the experiment on SK-MEL-2 melanoma, in the experiment with SF-539 CNS, in the experiment with MOLT-4 leukemia, in the experiment on SNB-75 CNS, in the experiment with SR leukemia and in the experiment on RXF 393 renal was above 100 µM throughout. The concentration for total growth inhibition (TGI) in the experiment on NCI-H226 lung, in the experiment with BT-549 breast, with MALME-3M melanoma and in the experiment with 786-0 renal was above 100 µM in each case.

Turning to `Clc1ccccc1-c1nc(-c2ccncc2)no1`, the TGI in the experiment with SK-MEL-2 melanoma, in the experiment on SF-539 CNS, with MOLT-4 leukemia, with SNB-75 CNS, in the experiment with SR leukemia and in the experiment with RXF 393 renal was above 100 µM each time. Moreover, the TGI in the experiment with NCI-H226 lung, in the experiment on BT-549 breast, in the experiment with MALME-3M melanoma and with 786-0 renal was above 100 µM each time.

Consider `COc1cc(/C=C/C(=O)NC[C@]2(O)CCC3C4CCc5cc(O)ccc5C4CCC32C)ccc1O` (stereo partly specified), for which the GI50 in the experiment with SK-MEL-2 melanoma was 38.8 µM; with SF-539 CNS, 16.1 µM; in the experiment on MOLT-4 leukemia, 3.9 µM; in the experiment with SNB-75 CNS it was 42.5 µM; with SR leukemia, 1.53 µM; in the experiment on RXF 393 renal it was 6.42 µM. The GI50 in the experiment on NCI-H226 lung was 35.1 µM; in the experiment with BT-549 breast it was 5.54 µM; with MALME-3M melanoma it was 3.5 µM; in the experiment on 786-0 renal, 11.3 µM. The TGI in the experiment with SK-MEL-2 melanoma was above 100 µM; in the experiment on SF-539 CNS it was above 100 µM; with MOLT-4 leukemia, 32.7 µM; with SNB-75 CNS it was above 100 µM; with SR leukemia, 59.7 µM; with RXF 393 renal it was 85.5 µM. The TGI with NCI-H226 lung is above 100 µM; with BT-549 breast, 52.1 µM; with MALME-3M melanoma, 42.3 µM; in the experiment on 786-0 renal, 45.7 µM.

As for `S=c1nc[nH]c2nc[nH]c12`, the GI50 with SK-MEL-2 melanoma was > 100 µM and 26.2 µM; with SF-539 CNS, 3.02 µM; with MOLT-4 leukemia it was 2.34 µM and 13.2 µM; in the experiment on SR leukemia it was 0.43 µM; in the experiment on MALME-3M melanoma, 5.28 µM; in the experiment on 786-0 renal, 0.7 µM and 5.34 µM. Further, the TGI in the experiment on SK-MEL-2 melanoma was > 100 µM and 664 µM and > 750 µM; with SF-539 CNS, > 100 µM and 587 µM and 255 µM; in the experiment on MOLT-4 leukemia it was 26.8 µM and 245 µM and 31.6 µM; in the experiment with SNB-75 CNS, > 100 µM and 402 µM and > 621 µM; with SR leukemia, 72.7 µM and 239 µM; in the experiment on RXF 393 renal it was > 100 µM and 629 µM and > 750 µM. Moreover, the TGI in the experiment on NCI-H226 lung is > 100 µM and 676 µM and > 750 µM; with BT-549 breast it was above 750 µM; with MALME-3M melanoma it was > 100 µM and 298 µM and > 750 µM; in the experiment with 786-0 renal, above 750 µM.

As for `CC(C)[C@](O)(C(=O)OCC1=CC[N+]2([O-])CC[C@@H](O)[C@@H]12)[C@H](C)O` (stereo partly specified), the TGI in the experiment with SK-MEL-2 melanoma is above 10000 µM; in the experiment with SF-539 CNS, above 10000 µM; in the experiment with MOLT-4 leukemia, above 10000 µM; in the experiment on SNB-75 CNS, above 10000 µM; in the experiment on SR leukemia, above 10000 µM; in the experiment with RXF 393 renal, above 7940 µM. For the same molecule, the TGI in the experiment on NCI-H226 lung, in the experiment with BT-549 breast, in the experiment on MALME-3M melanoma and in the experiment on 786-0 renal was above 10000 µM each time.

In the case of `Cc1cc(C(=O)N[C@@H](CCC(=O)O)C(=O)O)sc1CC[C@@H]1CNc2nc(N)[nH]c(=O)c2C1`, the GI50 in the experiment with SK-MEL-2 melanoma is 7.78 µM; in the experiment on SF-539 CNS, below 0.01 µM; with MOLT-4 leukemia, 0.0292 µM; in the experiment with SNB-75 CNS, 0.252 µM; in the experiment with SR leukemia, below 0.01 µM; with RXF 393 renal, below 0.0153 µM. For the same molecule, the GI50 is below 0.0245 µM in the experiment with NCI-H226 lung, 0.0883 µM with BT-549 breast, 0.0398 µM in the experiment on MALME-3M melanoma and below 0.01 µM with 786-0 renal. Also, the TGI in the experiment with SK-MEL-2 melanoma, in the experiment with SF-539 CNS, in the experiment on MOLT-4 leukemia, with SNB-75 CNS, with SR leukemia and in the experiment with RXF 393 renal was above 100 µM in each case. For the same molecule, the TGI in the experiment on NCI-H226 lung, in the experiment on BT-549 breast, with MALME-3M melanoma and with 786-0 renal was above 100 µM each time.

A word on the GI50: it is the concentration that inhibits growth by half. In general, TGI refers to the concentration at which net growth stops.
